Assay [1] concerns CDK4. Put plainly: Competition and pulldown of Compound 300/Compound 148 in CDK4-overexpressing MCF-7 lysate. The assay is classed as binding, human. As to conditions: varying Compound 148 prior to 500 μM Compound 300, CDK4 overexpression. The method, then:
MCF-7 cells were grown to 40% confluency in 3 mL DMEM media (Gibco) containing 10% (v/v) FBS in a 6-well chamber at 37° C., 5% CO2. Transfection was then performed as per Lipofectamine 2000 protocol (Invitrogen). Briefly, 0 or 2.5 μg of pcDNA3.1(+)-FLAG-TEV-CDK4 expression construct was introduced at 0:0, 2:1 and 3:1 transfection reagent:DNA. The lipid-DNA complex was incubated for 30 mins at 23° C. in Opti-MEM media (Gibco). Then, 250 μL complex was added to 2.75 mL DMEM containing no FBS. 3 mL DMEM+DNA was added to each well, while control wells received DMEM only. Cells were incubated for 6H at 37° C., 5% CO2. The media was then aspirated, and cells were given 3 mL DMEM+10% FBS and left to incubate for an additional 30H at 37° C., 5% CO2. Cells were washed 3× in 500 μL ice-cold PBS then harvested by scraping in 200 μL ice-cold PBS+1% Triton X-100 containing EDTA-free protease inhibitors (Roche). Cells were lysed at 4° C. for 30 mins while rocking. Lysate was clarified by centrifugation at 10,000×g at 4° C. for 15 mins. The supernatant was then transferred to a fresh prechilled 1.5 mL microcentrifuge tube. Protein concentration was normalized to 2.0 mg/mL via BCA assay (Pierce; cat no. 23225). […] CDK4 expression was quantified by densitometry (ImageJ) and normalized to the actin loading control. […]

In assay [2] the test system is ribociclib-sensitive cell lines. Put plainly: Cell viability screen across ribociclib-sensitive cell lines. It counts as cell-based. As to conditions: 500 μM compound. The method, then: All cells were maintained as a monolayer in exponential growth at 37° C. in a 5% CO2 atmosphere. MCF-7 and HepG2 were maintained in Dulbecco's Modified Eagle Medium (DMEM, Gibco) supplemented with 10% (v/v) fetal bovine serum (FBS, Seradigm). HT-29 and SW-48 were maintained in RPMI 1640 Medium (Gibco) supplemented with 10% FBS.
All cells dosed with oxaziridine were treated using a 2% DMSO/media solution. Oxaziridines were dissolved in DMSO and used the same day as treatment. Media was removed from cells and replaced with fresh media containing oxaziridine in DMSO for a final concentration of 2% DMSO. Control wells were treated with 2% DMSO/media. Cells were incubated at 37° C. in a 5% CO2 atmosphere.
Commercially available Cell Counting Kit-8 Assay (Dojindo) was used to investigate cell viability after treatment with oxaziridines. Cells were plated in 96-well plates (black/clear bottom; Thermo Fisher) and grown to 75% confluency. Media was removed and replaced with media containing 2% DMSO and indicated compound concentration. Cells were allowed to incubate 24 h. To assess viability, media was removed and replaced with 100 μL media containing 10% CCK-8 assay solution. Plates were incubated at 37° C. in a 5% CO2 atmosphere for 1-4 h until an orange color was visible. Viability was quantified via plate reader (monofilter) with absorption at 450 nm. […]

Assay [3] has as its target CDK6 (Homo sapiens, UniProt Q00534). Put plainly: Shotgun proteomics (MS/MS) modification of purified CDK6. As to conditions: shotgun proteomics on purified protein. It counts as binding.

These results are taken from US20250206708A1, “AN OXAZIRIDINE PLATFORM FOR TARGETING FUNCTIONAL ALLOSTERIC METHIONINE SITES” (Novartis AG, priority 2022, published 2025).

CDK6, sequence (Q00534 whole entry): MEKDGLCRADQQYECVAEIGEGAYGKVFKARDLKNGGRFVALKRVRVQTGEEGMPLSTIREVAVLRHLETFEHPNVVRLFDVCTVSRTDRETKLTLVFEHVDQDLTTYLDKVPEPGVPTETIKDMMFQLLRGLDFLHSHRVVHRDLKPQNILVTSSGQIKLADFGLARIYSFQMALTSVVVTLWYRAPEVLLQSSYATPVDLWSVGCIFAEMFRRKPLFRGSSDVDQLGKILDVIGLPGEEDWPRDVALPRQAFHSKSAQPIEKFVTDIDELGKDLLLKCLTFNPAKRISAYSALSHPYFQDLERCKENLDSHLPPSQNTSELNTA

Consider `O=C(N1CC2COCC2C1)N1OC1c1ccccc1` (stereo not drawn) [Compound 148], for which the “CDK4 signal in eluted proteins after pulldown (competition with Compound 300)” value in assay [1] was “dose-dependent decrease in signal in eluted proteins”. The “cell viability of ribociclib-sensitive cell lines” value in assay [2] is recorded as “decrease cell viability”. In assay [3], the “modifications on CDK6” value is “No modifications”.
